Data reported in publication PMC9865890, “N-Derivatives of (Z)-Methyl 3-(4-Oxo-2-thioxothiazolidin-5-ylidene)methyl)-1H-indole-2-carboxylates as Antimicrobial Agents—In Silico and In Vitro Evaluation” (Pharmaceuticals, 2023).
Converted amounts (≈) assume the structure as drawn. Where two headings read alike, the source gives them in different places.

Key:
[1] = test system: Escherichia coli (ATCC 35210); assay: Antibacterial microdilution (MIC/MBC); format: cell-based; conditions: Escherichia coli, ATCC35210, E. coli; for MIC: read-out: MIC
Outline: (§1)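 Read-out: lowest concentration preventing growth (MIC) and lowest concentration killing the bacteria (MBC). Method was a modified microdilution, with streptomycin and ampicillin included for reference.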

[2] = test system: P. aeruginosa; assay: Antibacterial microdilution (MIC/MBC); format: cell-based; conditions: Pseudomonas aeruginosa, P.a. (P. aeruginosa); for MIC: read-out: MIC
Outline: as §1

[3] = test system: Bacillus cereus (clinical isolate); assay: Antibacterial microdilution (MIC/MBC); format: cell-based; conditions: B.c. (B. cereus)
Outline: as §1

[4] = test system: Staphylococcus aureus (ATCC 6538); assay: Antibacterial microdilution (MIC/MBC); format: cell-based; conditions: S.a. (S. aureus)
Outline: as §1

[5] = test system: Salmonella typhimurium (ATCC 13311); assay: Antibacterial microdilution (MIC/MBC); format: cell-based; conditions: Salmonella enterica, S.t. (S. typhimurium); for MIC: read-out: MIC
Outline: as §1

[6] = test system: Listeria monocytogenes (NCTC 7973); assay: Antibacterial microdilution (MIC/MBC); format: cell-based; conditions: L.m. (L. monocytogenes)
Outline: as §1

[7] = test system: Enterobacter cloacae (clinical isolate); assay: Antibacterial microdilution (MIC/MBC); format: cell-based; conditions: Enterobacter cloacae, En.cl (En. cloacae); for MIC: read-out: MIC
Outline: as §1

[8] = test system: M. flavus; assay: Antibacterial microdilution (MIC/MBC); format: cell-based; conditions: Micrococcus flavus; M.f. (M. flavus)
Outline: as §1

[9] = test system: Penicillium funiculosum (ATCC 36839); assay: Antifungal bioassay (MIC/MFC); format: cell-based; conditions: Talaromyces funiculosus, ATCC36839; P.f. (P. funiculosum)
Outline: (§2)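 In duplicate: all strains tested this way.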

[10] = test system: Aspergillus fumigatus (ATCC 1022); assay: Antifungal bioassay (MIC/MFC); format: cell-based; conditions: ATCC1022, A.f. (A. fumigatus)
Outline: as §2

[11] = test system: Aspergillus versicolor (ATCC 11730); assay: Antifungal bioassay (MIC/MFC); format: cell-based; conditions: ATCC11730, A.v. (A. versicolor)
Outline: as §2

[12] = test system: A. ochraceus; assay: Antifungal bioassay (MIC/MFC); format: cell-based; conditions: Aspergillus ochraceus, A.o. (A. ochraceus); for MIC: read-out: MIC
Outline: as §2

[13] = test system: Trichoderma viride (IAM 5061); assay: Antifungal bioassay (MIC/MFC); format: cell-based; conditions: T.v. (T. viride)
Outline: as §2

[14] = test system: Aspergillus niger (ATCC 6275); assay: Antifungal bioassay (MIC/MFC); format: cell-based; conditions: ATCC6275, A.n. (A. niger)
Outline: as §2

[15] = test system: P. ochrochloron; assay: Antifungal bioassay (MIC/MFC); format: cell-based; conditions: Penicillium ochrochloron; for MFC: P.o. (P. ochrochloron); for MIC: P.o. (P. ochrochloron; text: P. ochramensis), read-out: MIC
Outline: as §2

[16] = test system: Penicillium verrucosum var. cyclopium (food isolate); assay: Antifungal bioassay (MIC/MFC); format: cell-based
[17] = Staphylococcus aureus, ATCC6538
[18] = Staphylococcus aureus, ATCC6538, read-out: MIC
[19] = Listeria monocytogenes, NCTC7973
[20] = Listeria monocytogenes, NCTC7973, read-out: MIC
[21] = Trichoderma viride, IAM5061, read-out: MIC

SMILES | MBC [1] | MBC [2] | MIC [2] | MBC ([3]; Bacillus cereus) | MIC ([3]; Bacillus cereus, read-out: MIC) | MBC [4, 17] | MIC [4, 18] | MBC [5] | MBC [6, 19] | MIC [6, 20] | MBC [7] | MIC [7] | MBC [8] | MIC [8] | MFC [9] | MIC [9] | MFC [10] | MIC [10] | MFC [11] | MIC [11] | also measured
COC(=O)c1[nH]c2ccccc2c1/C=C1\SC(=S)N(CCCN2CCOCC2)C1=O [Compound 5, (Z)-methyl 3-((3-(3-morpholinopropyl)-4-oxo-2-thioxothiazolidin-5-ylidene)methyl)-1H-indole-2-carboxylate] | 60 ± 6 µg/mL (≈ 135 µM) | 60 ± 6 µg/mL (≈ 135 µM) | 30 ± 10 µg/mL (≈ 67.3 µM) | 60 ± 6 µg/mL (≈ 135 µM) | 30 ± 10 µg/mL (≈ 67.3 µM) | 30 ± 10 µg/mL (≈ 67.3 µM) | 15 µg/mL (≈ 33.7 µM) | 30 ± 10 µg/mL (≈ 67.3 µM) | 60 ± 6 µg/mL (≈ 135 µM) | 30 ± 10 µg/mL (≈ 67.3 µM) | 30 ± 10 µg/mL (≈ 67.3 µM) | 15 ± 9 µg/mL (≈ 33.7 µM) | 60 ± 6 µg/mL (≈ 135 µM) | 45 ± 3 µg/mL (≈ 101 µM) | 30 ± 10 µg/mL (≈ 67.3 µM) | 15 ± 3 µg/mL (≈ 33.7 µM) | 120 ± 40 µg/mL (≈ 269 µM) | 60 ± 6 µg/mL (≈ 135 µM) | 15 ± 3 µg/mL (≈ 33.7 µM) | 8 ± 0.6 µg/mL (≈ 18 µM) | MIC [1]: 30 ± 10 µg/mL (≈ 67.3 µM); MIC [4]: 15 ± 9 µg/mL (≈ 33.7 µM); MIC [5]: 22 ± 5 µg/mL (≈ 49.4 µM); MFC [12]: 15 ± 3 µg/mL (≈ 33.7 µM); MIC [12]: 8 ± 0.6 µg/mL (≈ 18 µM); MIC [13]: 4 ± 1 µg/mL (≈ 8.98 µM); MFC ([13]; Trichoderma viride, IAM5061): 8 ± 0.6 µg/mL (≈ 18 µM); MIC [13, 21]: 4 µg/mL (≈ 8.98 µM); MFC [14]: 30 ± 10 µg/mL (≈ 67.3 µM); MIC [14]: 15 ± 3 µg/mL (≈ 33.7 µM); MFC [15]: 15 ± 3 µg/mL (≈ 33.7 µM); MIC [15]: 110 ± 10 µg/mL (≈ 247 µM); melting point: 213 to 214 °C; MFC [16]: 30 ± 10 µg/mL (≈ 67.3 µM); MIC [16]: 15 ± 3 µg/mL (≈ 33.7 µM)
COC(=O)c1[nH]c2ccccc2c1/C=C1\SC(=S)N(c2ccc(C(=O)O)cc2)C1=O [Compound 2, (Z)-4-(5-((2-(methoxycarbonyl)-1H-indol-3-yl)methylene)-4-oxo-2-thioxothiazolidin-3-yl)benzoic acid] | 30 ± 10 µg/mL (≈ 68.4 µM) | 60 ± 6 µg/mL (≈ 137 µM) | 30 ± 10 µg/mL (≈ 68.4 µM) | 30 ± 10 µg/mL (≈ 68.4 µM) | 15 µg/mL (≈ 34.2 µM) | 30 ± 10 µg/mL (≈ 68.4 µM) | 15 µg/mL (≈ 34.2 µM) | 30 ± 10 µg/mL (≈ 68.4 µM) | 60 ± 6 µg/mL (≈ 137 µM) | 30 ± 10 µg/mL (≈ 68.4 µM) | 30 ± 10 µg/mL (≈ 68.4 µM) | 15 ± 9 µg/mL (≈ 34.2 µM) | 30 ± 10 µg/mL (≈ 68.4 µM) | 22 ± 5 µg/mL (≈ 50.2 µM) | 30 ± 10 µg/mL (≈ 68.4 µM) | 15 ± 3 µg/mL (≈ 34.2 µM) | 60 ± 6 µg/mL (≈ 137 µM) | 30 ± 10 µg/mL (≈ 68.4 µM) | 30 ± 10 µg/mL (≈ 68.4 µM) | 15 ± 3 µg/mL (≈ 34.2 µM) | MIC [1]: 22 ± 5 µg/mL (≈ 50.2 µM); MIC [3]: 15 ± 9 µg/mL (≈ 34.2 µM); MIC [4]: 15 ± 9 µg/mL (≈ 34.2 µM); MIC [5]: 22 ± 5 µg/mL (≈ 50.2 µM); MFC [12]: 15 ± 3 µg/mL (≈ 34.2 µM); MFC ([13]; Trichoderma viride, IAM5061): 15 ± 3 µg/mL (≈ 34.2 µM); MIC [13, 21]: 8 ± 0.6 µg/mL (≈ 18.2 µM); MFC [14]: 30 ± 10 µg/mL (≈ 68.4 µM); MIC [14]: 22 ± 5 µg/mL (≈ 50.2 µM); MFC [15]: 30 ± 10 µg/mL (≈ 68.4 µM); MIC [15]: 15 ± 3 µg/mL (≈ 34.2 µM); melting point: 294 to 295 °C; MFC [16]: 60 ± 6 µg/mL (≈ 137 µM); MIC [16]: 30 ± 10 µg/mL (≈ 68.4 µM)
COC(=O)c1[nH]c2ccccc2c1/C=C1\SC(=S)N(c2ccc(O)cc2)C1=O [Compound 4, (Z)-methyl 3-((3-(4-hydroxyphenyl)-4-oxo-2-thioxothiazolidin-5-ylidene)methyl)-1H-indole-2-carboxylate] | 60 ± 6 µg/mL (≈ 146 µM) | 60 ± 6 µg/mL (≈ 146 µM) | 30 ± 10 µg/mL (≈ 73.1 µM) | 60 ± 6 µg/mL (≈ 146 µM) | 30 ± 10 µg/mL (≈ 73.1 µM) | 60 ± 6 µg/mL (≈ 146 µM) | 30 ± 10 µg/mL (≈ 73.1 µM) | 60 ± 6 µg/mL (≈ 146 µM) | 60 ± 6 µg/mL (≈ 146 µM) | 45 ± 1 µg/mL (≈ 110 µM) | 30 ± 10 µg/mL (≈ 73.1 µM) | 15 ± 9 µg/mL (≈ 36.5 µM) | 60 ± 6 µg/mL (≈ 146 µM) | 45 ± 3 µg/mL (≈ 110 µM) | 30 ± 10 µg/mL (≈ 73.1 µM) | 15 ± 3 µg/mL (≈ 36.5 µM) | 120 ± 40 µg/mL (≈ 292 µM) | 60 ± 6 µg/mL (≈ 146 µM) | 15 ± 3 µg/mL (≈ 36.5 µM) | 8 ± 0.6 µg/mL (≈ 19.5 µM) | MIC [1]: 45 ± 3 µg/mL (≈ 110 µM); MIC [5]: 45 ± 3 µg/mL (≈ 110 µM); MFC [12]: 15 ± 3 µg/mL (≈ 36.5 µM); MIC [12]: 8 ± 0.6 µg/mL (≈ 19.5 µM); MIC [13]: 8 ± 0.6 µg/mL (≈ 19.5 µM); MFC ([13]; Trichoderma viride, IAM5061): 15 ± 3 µg/mL (≈ 36.5 µM); MIC [13, 21]: 8 µg/mL (≈ 19.5 µM); MFC [14]: 30 ± 10 µg/mL (≈ 73.1 µM); MIC [14]: 15 ± 3 µg/mL (≈ 36.5 µM); MFC [15]: 30 ± 10 µg/mL (≈ 73.1 µM); MIC [15]: 15 ± 3 µg/mL (≈ 36.5 µM); melting point: 282 to 284 °C; MFC [16]: 60 ± 6 µg/mL (≈ 146 µM); MIC [16]: 30 ± 10 µg/mL (≈ 73.1 µM)
COC(=O)c1[nH]c2ccccc2c1/C=C1\SC(=S)N(C(C(=O)O)C(C)C)C1=O (stereo not shown) [Compound 12, (Z)-2-(5-((2-(methoxycarbonyl)-1H-indol-3-yl)methylene)-4-oxo-2-thioxothiazolidin-3-yl)-3-methylbutanoic acid] | 30 ± 10 µg/mL (≈ 71.7 µM) | 30 ± 10 µg/mL (≈ 71.7 µM) | 15 ± 9 µg/mL (≈ 35.8 µM) | 60 ± 6 µg/mL (≈ 143 µM) | 30 ± 10 µg/mL (≈ 71.7 µM) | 60 ± 6 µg/mL (≈ 143 µM) | 30 ± 10 µg/mL (≈ 71.7 µM) | 8 ± 9 µg/mL (≈ 19.1 µM) | 30 ± 10 µg/mL (≈ 71.7 µM) | 15 µg/mL (≈ 35.8 µM) | 60 ± 6 µg/mL (≈ 143 µM) | 15 µg/mL (≈ 35.8 µM) | 60 ± 6 µg/mL (≈ 143 µM) | 30 ± 10 µg/mL (≈ 71.7 µM) | 30 ± 10 µg/mL (≈ 71.7 µM) | 15 ± 3 µg/mL (≈ 35.8 µM) | 120 ± 40 µg/mL (≈ 287 µM) | 60 ± 6 µg/mL (≈ 143 µM) | 15 ± 3 µg/mL (≈ 35.8 µM) | 8 ± 0.6 µg/mL (≈ 19.1 µM) | MIC [6]: 15 ± 1 µg/mL (≈ 35.8 µM); MFC [12]: 15 ± 3 µg/mL (≈ 35.8 µM); MIC [12]: 8 ± 0.6 µg/mL (≈ 19.1 µM); MIC [13]: 8 ± 0.6 µg/mL (≈ 19.1 µM); MFC ([13]; Trichoderma viride, IAM5061): 15 ± 3 µg/mL (≈ 35.8 µM); MIC [13, 21]: 8 µg/mL (≈ 19.1 µM); MFC [14]: 30 ± 10 µg/mL (≈ 71.7 µM); MIC [14]: 22 ± 5 µg/mL (≈ 52.6 µM); MFC [15]: 30 ± 10 µg/mL (≈ 71.7 µM); MIC [15]: 15 ± 3 µg/mL (≈ 35.8 µM); melting point: 256 to 258 °C; MFC [16]: 60 ± 6 µg/mL (≈ 143 µM); MIC [16]: 30 ± 10 µg/mL (≈ 71.7 µM)
